Earlier results on 1 compound are cited in patent US9913833B2, “Methods of treating developmental disorders using pipradrol” (Ovid Therapeutics Inc., priority 2015, dated 2018).

For this series, the system named is depression. Particulars: published study on 111 individuals with depression.

Turning to `OC(c1ccccc1)(c1ccccc1)C1CCCCN1` (stereo not shown) [pipradrol], the “efficacy in depression compared with placebo” value was “not superior to placebo”.
